The subject of one assay is U-937. As to the kind of experiment: Inhibition of [14C]-AEA uptake in human U937 cells preincubated for 15 mins followed by [14C]-AEA addition and measured after 5 mins by scintillation counting method. In kind it is functional, cell-based.
Assay [1] has as its target T1, Fatty-acid amide hydrolase 1 (Homo sapiens, UniProt O00519).
T1 sequence (O00519 whole entry): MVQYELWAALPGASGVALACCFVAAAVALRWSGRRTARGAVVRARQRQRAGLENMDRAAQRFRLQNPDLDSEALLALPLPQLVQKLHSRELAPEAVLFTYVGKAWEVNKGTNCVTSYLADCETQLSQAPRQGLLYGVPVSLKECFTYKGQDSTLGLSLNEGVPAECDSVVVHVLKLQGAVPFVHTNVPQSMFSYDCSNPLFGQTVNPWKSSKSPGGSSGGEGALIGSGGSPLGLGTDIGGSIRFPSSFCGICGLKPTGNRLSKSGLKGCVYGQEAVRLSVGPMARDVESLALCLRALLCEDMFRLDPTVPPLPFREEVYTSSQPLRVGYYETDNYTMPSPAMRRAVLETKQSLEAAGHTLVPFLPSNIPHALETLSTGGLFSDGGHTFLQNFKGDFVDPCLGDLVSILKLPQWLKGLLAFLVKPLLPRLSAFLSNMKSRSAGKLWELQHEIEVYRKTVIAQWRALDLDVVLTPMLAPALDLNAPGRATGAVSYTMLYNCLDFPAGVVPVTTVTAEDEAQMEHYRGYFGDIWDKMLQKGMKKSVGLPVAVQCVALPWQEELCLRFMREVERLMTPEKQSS
As to the kind of experiment: Inhibition of FAAH in human U937 cell homogenates using [14C]-AEA as substrate preincubated for 15 mins followed by substrate addition and measured after 15 mins by liquid scintillation counting method.

The target of assay [2] is T2, Fatty-acid amide hydrolase 1 (Homo sapiens) (UniProt O00519).
T2 sequence (whole entry): T1 sequence (O00519 whole entry)
As to the kind of experiment: Inhibition of FAAH in human U937 cell homogenates at 100 uM using [14C]-AEA as substrate preincubated for 15 mins followed by substrate addition and measured after 15 mins by liquid scintillation counting method relative to control.

In the next assay the target is T3, Monoglyceride lipase (Homo sapiens, UniProt Q99685).
T3 sequence (Q99685 whole entry): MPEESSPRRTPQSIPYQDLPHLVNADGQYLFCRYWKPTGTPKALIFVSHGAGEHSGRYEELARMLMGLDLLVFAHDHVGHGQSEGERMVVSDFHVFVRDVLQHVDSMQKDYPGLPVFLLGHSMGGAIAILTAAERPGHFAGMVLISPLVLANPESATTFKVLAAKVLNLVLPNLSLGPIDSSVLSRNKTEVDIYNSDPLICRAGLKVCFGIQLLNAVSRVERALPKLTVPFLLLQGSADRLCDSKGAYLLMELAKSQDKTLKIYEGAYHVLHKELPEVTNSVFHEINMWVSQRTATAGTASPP
In words: Inhibition of MAGL in human U937 cell homogenates using [3H]-2OG as substrate preincubated for 15 mins followed by substrate addition and measured after 15 mins by liquid scintillation counting method.

In a further assay the target is Cannabinoid receptor 1 (Homo sapiens, UniProt P21554). In words: Displacement of [3H]-CP55940 from recombinant human CB1 receptor measured after 2 hrs by liquid scintillation counting method. Background: Displacement assays read how much labelled ligand stays bound in the presence of the test substance.
Chain of Cannabinoid receptor 1 (P21554 whole entry): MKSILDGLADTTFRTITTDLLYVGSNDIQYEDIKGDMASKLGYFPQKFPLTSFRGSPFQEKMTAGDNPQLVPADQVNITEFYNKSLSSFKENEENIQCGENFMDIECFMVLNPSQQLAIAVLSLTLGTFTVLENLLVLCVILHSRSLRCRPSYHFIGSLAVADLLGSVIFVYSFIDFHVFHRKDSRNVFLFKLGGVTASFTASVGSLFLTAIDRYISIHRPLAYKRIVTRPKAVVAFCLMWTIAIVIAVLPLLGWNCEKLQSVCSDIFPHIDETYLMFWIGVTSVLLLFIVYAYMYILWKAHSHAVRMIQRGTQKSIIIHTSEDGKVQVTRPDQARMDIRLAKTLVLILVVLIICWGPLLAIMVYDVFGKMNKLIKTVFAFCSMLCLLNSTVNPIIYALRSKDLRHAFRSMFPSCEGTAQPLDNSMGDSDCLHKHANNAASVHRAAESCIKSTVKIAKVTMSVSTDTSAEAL
Another assay addresses Cannabinoid receptor 2 (Homo sapiens, UniProt P34972). As to the kind of experiment: Displacement of [3H]-CP55940 from recombinant human CB2 receptor measured after 2 hrs by liquid scintillation counting method.
For assay [3], the target named is Fatty acid-binding protein 5 (Homo sapiens, UniProt Q01469). As to the kind of experiment: Displacement of NBD-Stearate from recombinant human FABP5 measured after 30 mins by fluorescence polarization assay. On the technique in general: Fluorescence polarisation rises when a labelled molecule tumbles more slowly, as on binding a larger partner.
Chain of Fatty acid-binding protein 5 (Q01469 whole entry): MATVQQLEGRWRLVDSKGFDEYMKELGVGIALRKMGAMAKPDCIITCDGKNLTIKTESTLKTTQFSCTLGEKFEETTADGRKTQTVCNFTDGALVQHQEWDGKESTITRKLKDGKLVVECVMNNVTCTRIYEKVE

Chain of Cannabinoid receptor 2 (P34972 whole entry): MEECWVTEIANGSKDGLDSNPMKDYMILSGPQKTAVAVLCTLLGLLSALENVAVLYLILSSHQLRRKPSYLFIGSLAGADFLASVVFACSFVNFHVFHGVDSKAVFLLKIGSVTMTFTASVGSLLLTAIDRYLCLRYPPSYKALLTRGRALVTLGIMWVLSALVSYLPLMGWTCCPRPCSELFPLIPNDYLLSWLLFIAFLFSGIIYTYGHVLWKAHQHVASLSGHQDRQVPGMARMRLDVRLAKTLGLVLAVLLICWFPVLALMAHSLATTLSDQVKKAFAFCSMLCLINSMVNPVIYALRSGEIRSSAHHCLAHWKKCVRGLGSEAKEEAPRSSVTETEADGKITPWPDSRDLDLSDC

As a reminder, the EC50 is the concentration giving half of the maximal effect. The low end stands for greater potency, the high end for weaker potency. What is called IC50 is the concentration at which inhibition is half-maximal. A lower IC50 goes with greater potency. Broadly, the inhibition is the drop in the measured response relative to a control, in per cent. A higher inhibition goes with a response far below the control. As a reminder, the Ki is a dissociation constant, usually derived from enzyme kinetics or from competition with a known ligand. The molecule `CC(C)CNC(=O)/C=C/C=C/CCCCCC/C=C/c1ccc2c(c1)OCO2` [GUINEENSINE] yielded an Efficacy with U-937 of 65%. Also, in the assay with U-937 (Homo sapiens, U-937), the response was half-maximal at 0.29 µM (EC50). Further, the IC50 in assay [1] was found to be 46.8 µM. Also, in assay [2], the inhibition worked out at 59%. The inhibition constant Ki on Monoglyceride lipase was over 100 µM; on Cannabinoid receptor 1 it was over 20 µM; on Cannabinoid receptor 2, 38.3 µM; in assay [3], over 100 µM.

Source of the values: ChEMBL document CHEMBL4422692, “Plant-Based Modulators of Endocannabinoid Signaling” (J Nat Prod, 2019).
